Reference: patent publication US20250360091A1, “COMBINATION OF SGLT2 INHIBITOR AND MENTHOL AND USE THEREOF IN TREATMENT OF HEART DISEASE” (EAST CHINA UNIVERSITY OF SCIENCE AND TECHNOLOGY, priority 2023, published 2025)

What was measured:
[1] = tested on: Rat cardiomyocytes (H9c2); assay: GD-induced myocardial cell damage model, CCK-8, SGLT2 inhibitors with L-menthol (Example 9); format: cell-based; conditions: single drugs: SGLT2 inhibitor 50 μM or menthol 200 μM; GD 36-48 h; untreated group 54.7%
Experimental: In this example, the protective effect of the drug composition on myocardial cells was evaluated by using a GD-induced myocardial cell damage model. […] Rat cardiomyocytes (H9c2) were purchased from the Chinese Academy of Sciences Stem Cell Bank. The cardiomyocytes were cultured in high-glucose DMEM medium (Gibco, 11995-065) containing 10% fetal bovine serum and 1% penicillin/streptomycin, and incubated in a 37° C., 5% CO2 incubator. […] When the cells reached confluence, the DMEM medium was removed, and the cells were washed once with PBS. […] The synergistic coefficient was calculated using the Zero interaction dose model, with the formula: CI=(EAB−EA*EB)/(EA+EB−EA*EB), wherein CI is the synergistic effect index, EAB is the efficacy index of the combination of drugs, and EA and EB are the efficacy indices of the individual drugs, respectively.

[2] = tested on: ISO-induced heart failure model; assay: Isoproterenol-induced heart failure model (Example 3); format: in vivo, C57/6J male mice; conditions: for cardiac function (ejection fraction, fractional shortening, echocardiography): gavage daily, day 15
Experimental: Isoproterenol hydrochloride is a commonly used inducer for establishing a heart failure model. Subcutaneous injection of isoproterenol hydrochloride can accelerate the heart rate of mice, cause the myocardium to continue to contract strongly, increase myocardial oxygen consumption, increase the heart load, and eventually cause heart failure.
Preferably, 50 µM of empagliflozin and 200 μM of menthol were converted into a mass ratio of about 1:1.5 according to the molar molecular weight. The dose of empagliflozin was set at 10 mg/kg and 30 mg/kg, and the pharmaceutical composition was set as the 10 mg/kg empagliflozin+15 mg/kg menthol group. In addition, in order to determine the extent to which the combination of menthol can reduce the effective dose of empagliflozin, a combination of menthol at a dose of 15 mg/kg and empagliflozin at a dose of 5 mg/kg was administered, resulting in the empagliflozin 5 mg/kg+menthol 15 mg/kg group.
Specifically, C57/6J male mice with an average body weight of about 21-22 g were divided into 7 groups (sham group, ISO group, empagliflozin 30 mg/kg group (E30), empagliflozin 10 mg/kg group (E10), menthol 15 mg/kg group (M15), empagliflozin 10 mg/kg+menthol 15 mg/kg group (E10+M15), empagliflozin 5 mg/kg+menthol 15 mg/kg group (E5+M15)), with 8 mice in each group. The mice were given drugs by gavage every morning, and the solvent was DMSO (the content was less than 5%, and menthol and empagliflozin solution were mixed in equal volumes and then gavaged into the mice). The sham group and ISO group were gavaged with an equal amount of drinking water every morning.
Isoproterenol hydrochloride was injected subcutaneously twice a day, in the morning and evening, with a dose of 40 mg/kg on days 1-2, 20 mg/kg on days 3-7, and 10 mg/kg on days 8-14. […]
On the 15th day, the Visual-Sonics Vevo 3100 small animal high-resolution micro-ultrasound imaging system was used to evaluate the cardiac structure and function of the experimental mice in each group. Three cardiac cycles were taken to measure the systolic interventricular septum thickness (IVSs), diastolic interventricular septum thickness (IVSd), left ventricular systolic inner diameter (LVIDs), left ventricular diastolic inner diameter (LVIDd), systolic left ventricular posterior wall thickness (LVPWs), and diastolic left ventricular posterior wall thickness (LVPWd), and the ejection fraction (EF, %) and fractional shortening (FS, %) were calculated. […] ImageJ was used to quantify the fibrosis area and calculate the degree of cardiac fibrosis. Graph Pad software was used for data processing and significant differences were calculated (OneWayANOVA was used between multiple groups, and Student's t test was used between two groups).

[3] = tested on: intracellular calcium concentration; assay: Intracellular calcium ion concentration with calcium probe Fluo4-AM (Example 5); format: cell-based; conditions: cariporide 100 μM, empagliflozin 50 μM, menthol 200 μM, combination 50 μM + 200 μM
Description: Intracellular calcium overload is an important factor in the transition of myocardial cells from reversible to irreversible damage. Intracellular calcium overload can be seen in a variety of cardiac pathological states, such as cardiac remodeling, myocardial ischemia-reperfusion injury, viral myocarditis, dilated cardiomyopathy, arrhythmias, and congestive heart failure. […] Empagliflozin can act on the sodium-hydrogen exchanger 1 (NHE1) on the myocardial cell membrane. When myocardial ischemia occurs, myocardial cell energy metabolism is impaired, and myocardial cells switch from fatty acid metabolism to sugar-free glycolysis, producing a large amount of lactic acid, which reduces the intracellular pH. As a regulatory protein for cell pH homeostasis, NHE1 can transport H^+ out of the cell by exchanging extracellular sodium ions, resulting in an increase in the intracellular sodium ion concentration. […] When mitochondrial function is impaired, the release of ROS increases, and ROS can further stimulate L-type calcium channels, promoting Ca^2+ influx, creating a vicious cycle. Empagliflozin inhibits the activity of NHE1 and can indirectly reduce the intracellular calcium ion concentration. Menthol, as an L-type calcium channel blocker, can synergistically reduce the intracellular calcium ion concentration with empagliflozin, playing a synergistic role. In order to verify this synergistic mechanism, the intracellular calcium ion concentration was detected using the calcium ion probe Fluo4-AM.
The experiment was divided into 5 groups, including control group (no drug group), cariporide group (positive control group, 100 μM), EMPA-50 (empagliflozin, 50 μM), M-200 (menthol, 200 μM), and E50+M200 (combination of 50 μM empagliflozin and 200 μM menthol).
• (1) Take an appropriate amount of Fluo4-AM stock solution (2 mM, BeyoTime, S1060) and dilute it to a 10 μM working solution with HBSS; • (2) For the cells to be tested (covering the bottom of the dish), remove the culture medium and wash with HBSS three times; • (3) Add 25 μL of Fluo4-AM working solution to each well, and then add 25 μL of compound solution to each well; • (4) Incubate at 37° C. for 30 min for fluorescent probe loading; • (5) Wash three times with HBSS, and add 100 μL of HBSS containing 10 mM CaCl2) to each well. Detect quantitatively the fluorescence of Fluo4-AM using a multifunctional fluorescence microplate reader (excitation wavelength 488 nm, emission wavelength 520 nm) to determine the changes in intracellular calcium ions.
Since empagliflozin indirectly affects intracellular calcium concentration by inhibiting NHE1, the intracellular environment was made acidic by using ammonium chloride solution to simulate the environment during myocardial ischemia, and the effect of the administered composition on intracellular calcium ions was tested. The NHE1 inhibitor cariporide was used as a positive control. The above step (3) was changed to add 25 μL of Fluo4-AM working solution to each well, mix the test compound with 80 mM NH4Cl solution at a 1:1 ratio, and then add 25 μL mixed solution of the compound and NH4Cl to each well (the final concentration of NH4Cl was 20 mM), and the remaining steps were the same as above.

[4] = NH4Cl present (20 mM, acidic intracellular conditions)

Row | SMILES | cell survival rate [1] [%] | cardiac function (ejection fraction, fractional shortening, echocardiography) ([2]; empagliflozin 10 mg/kg) | myocardial fibrosis (Masson staining area) ([2]; empagliflozin 30 mg/kg) | cardiac function (ejection fraction, fractional shortening, echocardiography) ([2]; empagliflozin 30 mg/kg) | effect on intracellular calcium concentration (Fluo4-AM fluorescence) [3, 4] | effect on intracellular calcium concentration (Fluo4-AM fluorescence) ([3]; absence of NH4Cl) | cardiac function (ejection fraction, fractional shortening, echocardiography) ([2]; menthol 15 mg/kg)
1 | OC[C@H]1O[C@@H](c2ccc(Cl)c(Cc3ccc(O[C@H]4CCOC4)cc3)c2)[C@H](O)[C@@H](O)[C@@H]1O [empagliflozin] | 64.5 | cannot significantly improve the cardiac function | significantly reduce myocardial fibrosis | can effectively improve | significantly reduce intracellular calcium concentration | almost no effect | –
2 | CC(C)[C@@H]1CC[C@@H](C)C[C@H]1O [menthol, L-menthol] | 56.7 | – | – | – | weak effect of reducing intracellular calcium concentration | weak inhibitory effect | slightly improved the cardiac function of mice with heart failure at a dose of 15 mg/kg, but there is no significant difference
